Read-outs that look alike come from different tables or passages of the source.
Molecular target: T1, AR protein (Homo sapiens, UniProt P10275, T878A)
T1 construct: The percent AR protein degradation induced by these compounds at various concentrations in LNCaP cells; host or cells: LNCaP
T1 sequence (P10275 1-920 T878A): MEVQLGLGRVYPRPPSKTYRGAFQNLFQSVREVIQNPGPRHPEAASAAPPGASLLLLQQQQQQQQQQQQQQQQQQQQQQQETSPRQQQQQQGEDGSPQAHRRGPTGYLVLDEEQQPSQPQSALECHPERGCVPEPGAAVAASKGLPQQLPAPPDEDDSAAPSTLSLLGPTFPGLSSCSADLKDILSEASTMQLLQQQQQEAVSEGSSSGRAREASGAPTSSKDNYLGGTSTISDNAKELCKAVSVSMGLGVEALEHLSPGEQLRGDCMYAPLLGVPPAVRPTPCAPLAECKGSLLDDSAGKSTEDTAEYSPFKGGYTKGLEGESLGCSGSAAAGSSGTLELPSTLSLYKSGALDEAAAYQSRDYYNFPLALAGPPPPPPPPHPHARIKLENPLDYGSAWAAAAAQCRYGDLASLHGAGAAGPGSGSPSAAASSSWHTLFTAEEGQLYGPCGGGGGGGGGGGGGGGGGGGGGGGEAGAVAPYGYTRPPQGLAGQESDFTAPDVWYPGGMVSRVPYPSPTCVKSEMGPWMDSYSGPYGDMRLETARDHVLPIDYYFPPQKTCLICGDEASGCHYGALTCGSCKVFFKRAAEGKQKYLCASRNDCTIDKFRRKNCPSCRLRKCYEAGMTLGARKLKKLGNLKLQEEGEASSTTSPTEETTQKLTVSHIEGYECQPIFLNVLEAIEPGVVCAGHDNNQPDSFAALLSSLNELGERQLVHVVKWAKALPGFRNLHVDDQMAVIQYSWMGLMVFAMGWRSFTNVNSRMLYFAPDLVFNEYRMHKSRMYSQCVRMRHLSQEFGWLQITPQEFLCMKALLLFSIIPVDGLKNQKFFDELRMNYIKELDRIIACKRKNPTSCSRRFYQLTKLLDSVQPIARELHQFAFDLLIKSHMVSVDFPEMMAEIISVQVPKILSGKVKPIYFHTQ
Experiment: AR protein degradation in LNCaP cells (Western blotting)
Format: cell-based
Protocol: Cell lines and Cell Culture: All the LNCaP, VCaP and 22RV1 cells used were purchased from American Type Culture Collection (ATCC). […] All of the cells were supplemented with 10% fetal bovine serum (Invitrogen) at 37° C. in a humidified 5% CO2 incubator.
Western Blotting. Treated cells were lysed by RIPA buffer supplemented with protease and phosphatase inhibitors. […] Software ImageJ was used to quantify the percentage of AR degradation. The net protein bands and loading controls are calculated by deducting the background from the inverted band value. The final relative quantification values are the ratio of net band to net loading control.

[1] = 0.01 μM, treatment time 6 h, average of three independent experiments
[2] = 0.1 μM, treatment time 6 h, average of three independent experiments
[3] = 1 μM, treatment time 6 h, average of three independent experiments
[4] = LNCaP, 0.01 μM, treatment time 6 h, average of three independent experiments
[5] = LNCaP, 0.1 μM, treatment time 6 h, average of three independent experiments, read-out: % AR protein degradation in LNCaP Cells
[6] = LNCaP, 1 μM, treatment time 6 h, average of three independent experiments, read-out: % AR protein degradation in LNCaP Cells
[7] = LNCaP, 6 h, read-out: % AR protein degradation in LNCaP Cells

Compound | % AR protein degradation in LNCaP Cells [1] [%] | % AR protein degradation in LNCaP Cells [2] [%] | % AR protein degradation in LNCaP Cells [3] [%] | other results
Cc1cc([C@H](C(=O)N2C[C@H](O)C[C@H]2C(=O)N[C@@H](CC(=O)N2CCN(c3ccc(C#Cc4ccc(C(=O)N[C@H]5C(C)(C)[C@H](Oc6ccc(C#N)c(Cl)c6)C5(C)C)cc4)cn3)CC2)c2ccc(-c3scnc3C)cc2)C(C)C)on1 [Compound 28, (2S,4R)—N—((S)-3-(4-(5-((4-(((1r,3r)-3-(3-Chloro-4-cyanophenoxy)-2,2,4,4-tetramethylcyclobutyl)carbamoyl)phenyl)ethynyl)pyridin-2-yl)piperazin-1-yl)-1-(4-(4-methylthiazol-5-yl)phenyl)-3-oxopropyl)-4-hydroxy-1-((R)-3-methyl-2-(3-methylisoxazol-5-yl)butanoyl)pyrrolidine-2-carboxamide] | 22 | 72 | 93 | –
Cc1cc([C@H](C(=O)N2C[C@H](O)C[C@H]2C(=O)N[C@@H](CC(=O)N2CCC(N3CCC(C#Cc4ccc(N5C(=S)N(c6ccc(C#N)c(C(F)(F)F)c6)C(=O)C5(C)C)cc4)CC3)CC2)c2ccc(-c3scnc3C)cc2)C(C)C)on1 [Compound 29, (2S,4R)—N—((S)-3-(4-((4-(3-(4-Cyano-3-(trifluoromethyl)phenyl)-5,5-dimethyl-4-oxo-2-thioxoimidazolidin-1-yl)phenyl)ethynyl)-[1,4′-bipiperidin]-1′-yl)-1-(4-(4-methylthiazol-5-yl)phenyl)-3-oxopropyl)-4-hydroxy-1-((R)-3-methyl-2-(3-methylisoxazol-5-yl)butanoyl)pyrrolidine-2-carboxamide] | – | – | – | Dmax at 0.01 µM [4]: 20%; Dmax at 0.1 µM [5]: 81%; Dmax at 1 µM [6]: 97%
Cc1cc([C@H](C(=O)N2C[C@H](O)C[C@H]2C(=O)N[C@@H](CC(=O)N2CCC(N3CCC(C#Cc4ccc(N5C(=S)N(c6cnc(C#N)c(C(F)(F)F)c6)C(=O)C56CCC6)cc4)CC3)CC2)c2ccc(-c3scnc3C)cc2)C(C)C)on1 [Compound 30, (2S,4R)—N—((S)-3-(4-((4-(7-(6-Cyano-5-(trifluoromethyl)pyridin-3-yl)-8-oxo-6-thioxo-5,7-diazaspiro[3.4]octan-5-yl)phenyl)ethynyl)-[1,4′-bipiperidin]-1′-yl)-1-(4-(4-methylthiazol-5-yl)phenyl)-3-oxopropyl)-4-hydroxy-1-((R)-3-methyl-2-(3-methylisoxazol-5-yl)butanoyl)pyrrolidine-2-carboxamide] | – | – | – | Dmax at 0.01 µM [4]: 38%; Dmax at 0.1 µM [5]: 80%; Dmax at 1 µM [6]: 95%
Cc1cc([C@H](C(=O)N2C[C@H](O)C[C@H]2C(=O)N[C@@H](CC(=O)N2CCC(N3CCC(C#Cc4ccc(C(=O)N[C@H]5C(C)(C)[C@H](Oc6ccc(C#N)c(Cl)c6)C5(C)C)cc4)CC3)CC2)c2ccc(-c3scnc3C)cc2)C(C)C)on1 [Compound 32, (2S,4R)—N—((S)-3-(4-((4-(((1r,3r)-3-(3-Chloro-4-cyanophenoxy)-2,2,4,4-tetramethyl-cyclobutyl)carbamoyl)phenyl)ethynyl)-[1,4′-bipiperidin]-1′-yl)-1-(4-(4-methylthiazol-5-yl)phenyl)-3-oxopropyl)-4-hydroxy-1-((R)-3-methyl-2-(3-methylisoxazol-5-yl)butanoyl)pyrrolidine-2-carboxamide] | 76 | 98 | 99 | AR degradation (Western blotting, dose-dependent) (LNCaP, at 10 nM): partial AR degradation; AR degradation (Western blotting, dose-dependent) (LNCaP, at both 100 nM and 1 μM): essentially complete AR degradation
Cc1cc([C@H](C(=O)N2C[C@H](O)C[C@H]2C(=O)N[C@@H](CC(=O)N2CCC(N3CCC(C#Cc4ccc(Cc5c(C)nn(-c6ccc(C#N)c(Cl)c6)c5C)cc4)CC3)CC2)c2ccc(-c3scnc3C)cc2)C(C)C)on1 [Compound 33, (2S,4R)—N—((S)-3-(4-((4-((1-(3-Chloro-4-cyanophenyl)-3,5-dimethyl-1H-pyrazol-4-yl)methyl)phenyl)ethynyl)-[1,4′-bipiperidin]-1′-yl)-1-(4-(4-methylthiazol-5-yl)phenyl)-3-oxopropyl)-4-hydroxy-1-((R)-3-methyl-2-(3-methylisoxazol-5-yl)butanoyl)pyrrolidine-2-carboxamide] | – | – | – | Dmax at 0.1 µM [7]: 65%; Dmax at 1 µM [7]: 93%; Dmax at 10 µM [7]: 78%
Cc1ncsc1-c1ccc([C@H](CC(=O)N2CCC(N3CCC(C#Cc4ccc(C(=O)N[C@H]5C(C)(C)[C@H](Oc6ccc(C#N)c(Cl)c6)C5(C)C)cc4)CC3)CC2)NC(=O)[C@@H]2C[C@@H](O)CN2C(=O)[C@@H](NC(=O)C2(C#N)CC2)C(C)(C)C)cc1 [Compound 35, (2S,4R)—N—((S)-3-(4-((4-(((1r,3r)-3-(3-Chloro-4-cyanophenoxy)-2,2,4,4-tetramethyl-cyclobutyl)carbamoyl)phenyl)ethynyl)-[1,4′-bipiperidin]-1′-yl)-1-(4-(4-methylthiazol-5-yl)phenyl)-3-oxopropyl)-1-((S)-2-(1-cyanocyclopropane-1-carboxamido)-3,3-dimethylbutanoyl)-4-hydroxypyrrolidine-2-carboxamide] | 76 | 99 | 100 | AR degradation (Western blotting, dose-dependent) (LNCaP, at 10 nM): partial AR degradation; AR degradation (Western blotting, dose-dependent) (LNCaP, at both 100 nM and 1 μM): essentially complete AR degradation
CC(=O)N[C@H](C(=O)N1C[C@H](O)C[C@H]1C(=O)N[C@@H](CC(=O)N1CCC(N2CCC(C#Cc3ccc(C(=O)N[C@H]4C(C)(C)[C@H](Oc5ccc(C#N)c(Cl)c5)C4(C)C)cc3)CC2)CC1)c1ccc(-c2scnc2C)cc1)C(C)(C)C [Compound 36, (2S,4R)-1-((S)-2-Acetamido-3,3-dimethylbutanoyl)-N—((S)-3-(4-((4-(((1r,3r)-3-(3-chloro-4-cyanophenoxy)-2,2,4,4-tetramethylcyclobutyl)carbamoyl)phenyl)ethynyl)-[1,4′-bipiperidin]-1′-yl)-1-(4-(4-methylthiazol-5-yl)phenyl)-3-oxopropyl)-4-hydroxypyrrolidine-2-carboxamide] | 39 | 77 | 99 | –
Cc1ncsc1-c1ccc([C@@H](CC(=O)N2CCC(N3CCC(C#Cc4ccc(C(=O)N[C@H]5C(C)(C)[C@H](Oc6ccc(C#N)c(Cl)c6)C5(C)C)cc4)CC3)CC2)NC(=O)[C@@H]2C[C@@H](O)CN2C(=O)[C@@H](NC(=O)C2(F)CC2)C(C)(C)C)cc1 [Compound 37, (2S,4R)—N—((R)-3-(4-((4-(((1r,3r)-3-(3-Chloro-4-cyanophenoxy)-2,2,4,4-tetramethyl-cyclobutyl)carbamoyl)phenyl)ethynyl)-[1,4′-bipiperidin]-1′-yl)-1-(4-(4-methylthiazol-5-yl)phenyl)-3-oxopropyl)-1-((S)-2-(1-fluorocyclopropane-1-carboxamido)-3,3-dimethyl-butanoyl)-4-hydroxypyrrolidine-2-carboxamide] | – | <5 | <5 | % AR protein degradation in LNCaP Cells (10 μM, treatment time 6 h, average of three independent experiments): <5%
